This note sets out measurements from patent US9630963B2, “Quinolone derivatives as fibroblast growth factor inhibitors” (Principia Biopharma, Inc., priority 2013, dated 2017).

Counter-ions that a name gives are not always drawn.

One test concerns the target human recombinant FGFR1 (Homo sapiens, UniProt P11362). Nature of the test: FGFR family enzymatic activity assay (Caliper-based kinase assay), FGFR1. In kind it is biochemical. Conditions: FGFR1 0.5 nM, ATP 100 μM, peptide substrate 1 μM, room temperature 3 h. From the text:
(§1) A Caliper-based kinase assay (Caliper Life Sciences, Hopkinton, Mass.) was used to measure inhibition of FGFR family (FGFR1, FGFR2, FGFR3, FGFR4) kinase activity of a compound of Formula (I′) or (I). […] This value is presented as the IC50.

A further test concerns the target human recombinant FGFR2 (Homo sapiens, UniProt P21802). The test can be described thus: FGFR family enzymatic activity assay (Caliper-based kinase assay), FGFR2. Conditions: FGFR2 0.1 nM, ATP 75 μM, peptide substrate 1 μM, room temperature 3 h. In kind it is biochemical.
Source text: as §1

In the next test the target is human recombinant FGFR3 (Homo sapiens, UniProt P22607). Nature of the test: FGFR family enzymatic activity assay (Caliper-based kinase assay), FGFR3. Format: biochemical. Conditions: FGFR3 0.9 nM, ATP 120 μM, peptide substrate 1 μM, room temperature 3 h.
Chain of human recombinant FGFR3 (P22607 23-806): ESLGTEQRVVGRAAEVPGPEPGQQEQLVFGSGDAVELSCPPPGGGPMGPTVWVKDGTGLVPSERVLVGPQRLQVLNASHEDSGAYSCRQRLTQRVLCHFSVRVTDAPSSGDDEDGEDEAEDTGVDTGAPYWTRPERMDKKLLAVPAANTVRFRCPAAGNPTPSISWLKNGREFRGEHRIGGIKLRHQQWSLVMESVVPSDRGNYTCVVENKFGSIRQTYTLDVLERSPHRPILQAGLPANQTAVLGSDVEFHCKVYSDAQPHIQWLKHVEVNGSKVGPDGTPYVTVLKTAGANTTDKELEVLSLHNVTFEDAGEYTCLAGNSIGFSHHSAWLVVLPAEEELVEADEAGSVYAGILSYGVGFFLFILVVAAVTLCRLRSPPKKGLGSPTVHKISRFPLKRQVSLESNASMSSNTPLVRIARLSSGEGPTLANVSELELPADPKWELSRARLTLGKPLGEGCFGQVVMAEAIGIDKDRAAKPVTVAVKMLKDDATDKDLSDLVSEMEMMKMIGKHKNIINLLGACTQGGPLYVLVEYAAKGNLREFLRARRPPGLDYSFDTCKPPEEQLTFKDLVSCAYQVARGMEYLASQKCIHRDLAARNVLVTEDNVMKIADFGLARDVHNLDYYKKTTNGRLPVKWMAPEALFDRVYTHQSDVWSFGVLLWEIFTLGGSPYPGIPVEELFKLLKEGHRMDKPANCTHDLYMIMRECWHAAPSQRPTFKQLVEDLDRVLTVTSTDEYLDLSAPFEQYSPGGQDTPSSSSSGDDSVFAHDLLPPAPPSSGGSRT
Source text: as §1

The next test addresses human recombinant FGFR4 (Homo sapiens, UniProt P22455). The test can be described thus: FGFR family enzymatic activity assay (Caliper-based kinase assay), FGFR4. Conditions: FGFR4 2 nM, ATP 250 μM, peptide substrate 1 μM, room temperature 3 h. In kind it is biochemical.
Source text: as §1

For another test, the system named is SNU-16 cells. The test can be described thus: Inhibition of FGFR2-dependent cell growth (Cell-titer Glo). Format: cell-based. Conditions: Homo sapiens, SNU16 cells, 72 hrs incubation, cell viability by Cell-titer Glo. As for the experimental part:
The cell-based effects of FGFR inhibitors were determined by measuring inhibition of FGFR-dependent cell line growth. […] Percent inhibition of cell growth was calculated as a percentage of untreated cell viability. The percent inhibition was plotted as a function of log compound concentration. The IC50 was then calculated for each compound using Prism software from GraphPad.

Chain of human recombinant FGFR4 (P22455 22-802): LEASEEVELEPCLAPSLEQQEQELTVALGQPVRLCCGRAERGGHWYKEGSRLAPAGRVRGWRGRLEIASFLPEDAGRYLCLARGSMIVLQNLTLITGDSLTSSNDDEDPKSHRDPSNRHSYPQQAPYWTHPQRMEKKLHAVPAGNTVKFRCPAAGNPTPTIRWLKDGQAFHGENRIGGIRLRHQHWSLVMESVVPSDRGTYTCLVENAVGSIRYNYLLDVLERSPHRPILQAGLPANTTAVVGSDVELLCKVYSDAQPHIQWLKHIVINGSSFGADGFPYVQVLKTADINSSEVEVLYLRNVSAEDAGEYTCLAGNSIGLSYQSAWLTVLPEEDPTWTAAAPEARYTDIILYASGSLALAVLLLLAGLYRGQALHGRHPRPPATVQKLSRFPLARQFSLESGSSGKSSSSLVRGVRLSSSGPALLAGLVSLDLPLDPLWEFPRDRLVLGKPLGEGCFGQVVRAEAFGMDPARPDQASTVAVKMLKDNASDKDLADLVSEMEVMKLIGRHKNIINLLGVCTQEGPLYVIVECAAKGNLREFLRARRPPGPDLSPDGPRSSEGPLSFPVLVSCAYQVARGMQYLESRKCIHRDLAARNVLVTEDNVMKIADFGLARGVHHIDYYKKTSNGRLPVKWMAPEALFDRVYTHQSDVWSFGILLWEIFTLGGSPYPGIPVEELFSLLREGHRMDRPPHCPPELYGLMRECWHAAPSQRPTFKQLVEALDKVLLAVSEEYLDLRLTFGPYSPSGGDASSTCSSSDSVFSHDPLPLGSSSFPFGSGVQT
Chain of human recombinant FGFR2 (P21802 22-821): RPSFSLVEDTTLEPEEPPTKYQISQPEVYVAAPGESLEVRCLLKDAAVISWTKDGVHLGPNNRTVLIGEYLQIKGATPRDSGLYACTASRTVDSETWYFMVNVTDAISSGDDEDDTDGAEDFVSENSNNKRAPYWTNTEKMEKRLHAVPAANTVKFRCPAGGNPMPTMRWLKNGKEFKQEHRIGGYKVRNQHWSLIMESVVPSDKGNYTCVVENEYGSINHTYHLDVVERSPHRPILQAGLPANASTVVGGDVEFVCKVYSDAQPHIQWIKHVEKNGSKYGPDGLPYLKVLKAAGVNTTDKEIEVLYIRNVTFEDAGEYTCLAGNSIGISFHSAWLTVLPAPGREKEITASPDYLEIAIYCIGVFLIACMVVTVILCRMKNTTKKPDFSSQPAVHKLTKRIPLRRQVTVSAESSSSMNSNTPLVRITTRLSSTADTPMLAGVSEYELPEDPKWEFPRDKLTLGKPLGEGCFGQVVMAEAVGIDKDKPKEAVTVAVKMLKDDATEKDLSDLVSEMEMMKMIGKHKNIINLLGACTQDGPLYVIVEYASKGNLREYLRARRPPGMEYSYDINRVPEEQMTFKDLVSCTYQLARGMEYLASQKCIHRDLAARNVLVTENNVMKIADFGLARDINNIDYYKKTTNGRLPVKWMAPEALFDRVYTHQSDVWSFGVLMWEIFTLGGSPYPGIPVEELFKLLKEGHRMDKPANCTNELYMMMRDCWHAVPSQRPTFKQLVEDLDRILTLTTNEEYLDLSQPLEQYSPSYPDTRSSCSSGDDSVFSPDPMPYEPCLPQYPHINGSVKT
Chain of human recombinant FGFR1 (P11362 22-822): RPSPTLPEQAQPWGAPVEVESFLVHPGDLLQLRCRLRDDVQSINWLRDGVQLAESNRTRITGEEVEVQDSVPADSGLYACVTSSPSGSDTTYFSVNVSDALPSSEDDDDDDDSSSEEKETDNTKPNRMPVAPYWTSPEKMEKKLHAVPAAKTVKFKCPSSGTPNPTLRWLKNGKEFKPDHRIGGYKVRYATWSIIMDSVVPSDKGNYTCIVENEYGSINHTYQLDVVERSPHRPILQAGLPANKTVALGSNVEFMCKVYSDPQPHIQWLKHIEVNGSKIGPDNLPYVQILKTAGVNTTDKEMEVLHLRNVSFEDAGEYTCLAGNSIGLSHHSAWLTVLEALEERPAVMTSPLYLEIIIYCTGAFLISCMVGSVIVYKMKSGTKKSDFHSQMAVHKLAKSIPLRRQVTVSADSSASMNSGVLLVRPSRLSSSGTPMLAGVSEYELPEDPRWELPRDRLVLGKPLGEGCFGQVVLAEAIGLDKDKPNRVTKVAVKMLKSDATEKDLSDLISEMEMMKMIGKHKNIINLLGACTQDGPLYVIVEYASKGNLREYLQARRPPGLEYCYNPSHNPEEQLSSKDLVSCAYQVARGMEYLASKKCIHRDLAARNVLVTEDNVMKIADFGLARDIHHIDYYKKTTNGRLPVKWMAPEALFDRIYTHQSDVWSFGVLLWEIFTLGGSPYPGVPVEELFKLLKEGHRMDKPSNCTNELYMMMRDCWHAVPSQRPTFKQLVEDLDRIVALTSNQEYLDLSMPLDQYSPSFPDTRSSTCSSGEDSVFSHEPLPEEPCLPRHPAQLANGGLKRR

The IC50 is the concentration needed to halve the response being measured. Take `C=CC(=O)Nc1ccc(CCn2c(=O)c(-c3c(Cl)c(OC)cc(OC)c3Cl)cc3cnc(NCCCCN(CC)CC)nc32)cc1` [Example 5, N-(4-(2-(6-(2,6-dichloro-3,5-dimethoxyphenyl)-2-(4-(diethylamino)butylamino)-7-oxopyrido[2,3-d]pyrimidin-8(7H)-yl)ethyl)phenyl)acrylamide hydrochloride]: the 50% inhibitory concentration (IC50) turned out to be 1.1 nM at human recombinant FGFR1; 1.5 nM on human recombinant FGFR2; 5.5 nM at human recombinant FGFR3; 32.4 nM on human recombinant FGFR4; 5.6 nM with SNU-16 cells.

As to `C=CC(=O)Nc1ccc(CCn2c(=O)c(-c3c(Cl)c(OC)cc(OC)c3Cl)cc3cnc(NC)nc32)nc1` [Example 38, N-(6-(2-(6-(2,6-dichloro-3,5-dimethoxyphenyl)-2-(methylamino)-7-oxopyrido[2,3-d]pyrimidin-8(7H)-yl)ethyl)pyridin-3-yl)acrylamide], the IC50 on human recombinant FGFR1 amounted to 1.2 nM; on human recombinant FGFR2 it was 2 nM; on human recombinant FGFR3, 3.3 nM; at human recombinant FGFR4, 6.3 nM; with SNU-16 cells, 2.5 nM.

Consider `C=CC(=O)Nc1ccc(CCn2c(=O)c(-c3c(Cl)c(OC)cc(OC)c3Cl)cc3cnc(NC(CO)CO)nc32)cc1` [Example 76, N-(4-(2-(6-(2,6-dichloro-3,5-dimethoxyphenyl)-2-((1,3-dihydroxypropan-2-yl)-amino)-7-oxopyrido[2,3-d]pyrimidin-8(7H)-yl)ethyl)phenyl)acrylamide], for which the IC50 on human recombinant FGFR1 is 0.8 nM; at human recombinant FGFR2, 1.6 nM; on human recombinant FGFR3, 6.7 nM; at human recombinant FGFR4 it was 9.6 nM; with SNU-16 cells, 7.4 nM.

With `C=CC(=O)Nc1ccc(CCn2c(=O)c(-c3cc(OC)cc(OC)c3Cl)cc3cnc(NCC4CCN(C)CC4)nc32)cc1` [Example 71, N-(4-(2-(6-(2-chloro-3,5-dimethoxyphenyl)-2-(((1-methylpiperidin-4-yl)methyl)-amino)-7-oxopyrido[2,3-d]pyrimidin-8(7H)-yl)ethyl)phenyl)acrylamide], the half-maximal inhibitory concentration (IC50) on human recombinant FGFR1 came to 1 nM; at human recombinant FGFR2, 1.3 nM; on human recombinant FGFR3, 5.9 nM; on human recombinant FGFR4, 95.8 nM; in the test on SNU-16 cells, 4.9 nM.

As to `C=CC(=O)Nc1ccc(CCn2c(=O)c(-c3cc(OC)cc(OC)c3Cl)cc3cnc(NCCN4CCN(C(C)=O)CC4)nc32)cc1` [Example 66, N-(4-(2-(2-((2-(4-acetylpiperazin-1-yl)ethyl)amino)-6-(2-chloro-3,5-dimethoxy-phenyl)-7-oxopyrido[2,3-d]pyrimidin-8(7H)-yl)ethyl)phenyl)acrylamide], the half-inhibitory concentration (IC50) at human recombinant FGFR2 is 2 nM; at human recombinant FGFR3, 6.3 nM; at human recombinant FGFR4 it was 41 nM.

On to `C=CC(=O)N1CCCC(CCn2c(=O)c(-c3ccccc3Cl)cc3cnc(NCCCCN(CC)CC)nc32)C1` (centres unmarked) [Example 2, 8-(2-(1-acryloylpiperidin-3-yl)ethyl)-6-(2-chlorophenyl)-2-(4-(diethylamino)-butylamino)pyrido[2,3-d]pyrimidin-7(8H)-one], for which the IC50 on human recombinant FGFR1 is 840 nM; at human recombinant FGFR2 it was 701 nM; on human recombinant FGFR3, 1040 nM; at human recombinant FGFR4, over 5000 nM.

As for `C=CC(=O)Nc1ccc(CCn2c(=O)c(-c3cc(OC)cc(OC)c3Cl)cc3cnc(NC)nc32)cn1` [Example 16, N-(5-(2-(6-(2-chloro-3,5-dimethoxyphenyl)-2-(methylamino)-7-oxopyrido[2,3-d]pyrimidin-8(7H)-yl)ethyl)pyridin-2-yl)acrylamide], the IC50 came to 1.7 nM on human recombinant FGFR2, 2.3 nM at human recombinant FGFR3 and 6.9 nM on human recombinant FGFR4.

In the case of `C=CC(=O)Nc1ccc(CCn2c(=O)c(-c3cc(OC)cc(OC)c3Cl)cc3cnc(NCCO)nc32)cc1` [Example 69, N-(4-(2-(6-(2-chloro-3,5-dimethoxyphenyl)-2-((2-hydroxyethyl)amino)-7-oxopyrido[2,3-d]pyrimidin-8(7H)-yl)ethyl)phenyl)acrylamide], the results for the IC50 on human recombinant FGFR2, at human recombinant FGFR3 and on human recombinant FGFR4 were 2 nM, 6 nM and 42.4 nM, respectively.

Regarding `C=CC(=O)Nc1ccc(CCn2c(=O)c(-c3cc(OC)cc(OC)c3Cl)cc3cnc(NC(CO)CO)nc32)cc1` [Example 72, N-(4-(2-(6-(2-chloro-3,5-dimethoxyphenyl)-2-((1,3-dihydroxypropan-2-yl)amino)-7-oxopyrido[2,3-d]pyrimidin-8(7H)-yl)ethyl)phenyl)acrylamide], the figures for the IC50 at human recombinant FGFR2, on human recombinant FGFR3 and at human recombinant FGFR4 were 1.5 nM, 6.8 nM and 43.3 nM, respectively.

Turning to `C=CC(=O)Nc1ccc(CCn2c(=O)c(-c3cc(OC)cc(OC)c3Cl)cc3cnc(NC)nc32)cc1` [Example 13, N-(4-(2-(6-(2-chloro-3,5-dimethoxyphenyl)-2-(methylamino)-7-oxopyrido[2,3-d]pyrimidin-8(7H)-yl)ethyl)phenyl)acrylamide], the IC50 came out at 1.4 nM at human recombinant FGFR2, 2.3 nM at human recombinant FGFR3 and 25.6 nM on human recombinant FGFR4.

For `C=CC(=O)Nc1cccc(Cn2c(=O)c(-c3cc(OC)cc(OC)c3Cl)cc3cnc(NCCN4CCOCC4)nc32)c1` [Example 102, N-(3-((6-(2-chloro-3,5-dimethoxyphenyl)-2-((2-morpholinoethyl)amino)-7-oxopyrido[2,3-d]pyrimidin-8(7H)-yl)methyl)phenyl)acrylamide], the values for the IC50 at human recombinant FGFR1 and in the test on SNU-16 cells were 1 nM and 3.9 nM, respectively.

On to `C=CC(=O)Nc1cccc(CCn2c(=O)c(-c3cc(OC)cc(OC)c3)cc3cnc(NC)nc32)c1` [Example 8, N-(3-(2-(6-(3,5-dimethoxyphenyl)-2-(methylamino)-7-oxopyrido[2,3-d]pyrimidin-8(7H)-yl)ethyl)phenyl)acrylamide], for which the half-inhibitory concentration (IC50) on human recombinant FGFR1 is 31.2 nM; at human recombinant FGFR3 it was 19 nM; with SNU-16 cells it was 83 nM.

Turning to `C=CC(=O)Nc1ccc(CCn2c(=O)c(-c3cc(OC)cc(OC)c3Cl)cc3cnc(NCC(C)(C)O)nc32)cn1` [Example 28, N-(5-(2-(6-(2-chloro-3,5-dimethoxyphenyl)-2-((2-hydroxy-2-methylpropyl)amino)-7-oxopyrido[2,3-d]pyrimidin-8(7H)-yl)ethyl)pyridin-2-yl)acrylamide], the IC50 at human recombinant FGFR1 amounted to 4.3 nM; with SNU-16 cells, 3.8 nM.

Turning to `C=CC(=O)Nc1ccc(CCn2c(=O)c(-c3c(Cl)c(OC)cc(OC)c3Cl)cc3cnc(NN4CCN(C)CC4)nc32)cc1` [Example 105, N-(4-(2-(6-(2,6-dichloro-3,5-dimethoxyphenyl)-2-((4-methylpiperazin-1-yl)amino)-7-oxopyrido[2,3-d]pyrimidin-8(7H)-yl)ethyl)phenyl)acrylamide], the IC50 at human recombinant FGFR1 was found to be 1.2 nM; in the test on SNU-16 cells, 7.8 nM.

On to `C=CC(=O)Nc1cccc(Cn2c(=O)c(-c3c(Cl)c(OC)cc(OC)c3Cl)cc3cnc(NCCCCN(CC)CC)nc32)c1` [Example 6, N-(3-[[6-(2,6-dichloro-3,5-dimethoxyphenyl)-2-[[4-(diethylamino)butyl]-amino]-7-oxo-7H,8H-pyrido[2,3-d]pyrimidin-8-yl]methyl]phenyl)acrylamide], for which the IC50 at human recombinant FGFR1 is 1.3 nM; at human recombinant FGFR2, 1 nM; at human recombinant FGFR3 it was 3.1 nM; on human recombinant FGFR4, 33.2 nM.

On to `C=CC(=O)Nc1ccc(CCn2c(=O)c(-c3cc(OC)cc(OC)c3Cl)cc3cnc(NCCCCN(CC)CC)nc32)cn1` [Example 32, N-(5-(2-(6-(2-chloro-3,5-dimethoxyphenyl)-2-((4-(diethylamino)butyl)amino)-7-oxopyrido[2,3-d]pyrimidin-8 (7H)-yl)ethyl)pyridin-2-yl)acrylamide], for which the IC50 stood at 1.2 nM at human recombinant FGFR1 and 6.7 nM in the test with SNU-16 cells.

On to `C=CC(=O)Nc1ccc(CCn2c(=O)c(-c3c(Cl)c(OC)cc(OC)c3Cl)cc3cnc(NCC(C)(C)O)nc32)nc1` [Example 84, N-(6-(2-(6-(2,6-dichloro-3,5-dimethoxyphenyl)-2-((2-hydroxy-2-methylpropyl)-amino)-7-oxopyrido[2,3-d]pyrimidin-8(7H)-yl)ethyl)pyridin-3-yl)acrylamide], for which the figures for the IC50 on human recombinant FGFR1 and in the test on SNU-16 cells were 0.7 nM and 14.5 nM, respectively.

On to `C=CC(=O)Nc1nc(CCn2c(=O)c(-c3cc(OC)cc(OC)c3Cl)cc3cnc(NC)nc32)cs1` [Example 33, N-(4-(2-(6-(2-chloro-3,5-dimethoxyphenyl)-2-(methylamino)-7-oxopyrido[2,3-d]-pyrimidin-8(7H)-yl)ethyl)thiazol-2-yl)acrylamide], for which the values for the IC50 on human recombinant FGFR1 and in the test on SNU-16 cells were 4.1 nM and 32.7 nM, respectively.

On to `C=CC(=O)Nc1cccc(CCn2c(=O)c(-c3cc(OC)cc(OC)c3Cl)cc3cnc(NCCN4CCOCC4)nc32)c1` [Example 35, N-(3-(2-(6-(2-chloro-3,5-dimethoxyphenyl)-2-((2-morpholinoethyl)amino)-7-oxo-pyrido[2,3-d]pyrimidin-8(7H)-yl)ethyl)phenyl)acrylamide], for which the IC50 on human recombinant FGFR1 was 6 nM; in the test on SNU-16 cells, 3.6 nM.

`C=CC(=O)Nc1ccc(CCn2c(=O)c(-c3cc(OC)cc(OC)c3Cl)cc3cnc(NCCn4ccnc4)nc32)cc1` [Example 50, N-(4-(2-(2-((2-(1H-imidazol-1-yl)ethyl)amino)-6-(2-chloro-3,5-dimethoxyphenyl)-7-oxopyrido[2,3-d]pyrimidin-8(7H)-yl)ethyl)phenyl)acrylamide]: the IC50 on human recombinant FGFR1 was found to be 7.4 nM; with SNU-16 cells, 11.7 nM.
